Data set [1] deals with HIV. On the set-up: method as in earlier work. Conditions: cited from earlier work.
A short description of data set [2]: clinical. Conditions: human, in vivo; for AUC(0-t): AUC0-24 PBMC.
The conditions of data set [3]: human, in vivo.
Data set [4] can be described thus: clinical. Conditions: human, in vivo, AUC0-24 Plasma.

The term AUC(0-t) denotes exposure summed from dosing to a finite time, without extrapolation to infinity. A lower AUC(0-t) goes with low exposure. `CC(C)CN(C[C@@H](O)[C@H](Cc1ccccc1)NC(=O)O[C@H]1CO[C@H]2OCC[C@H]21)S(=O)(=O)c1ccc(N)cc1` [DRV, darunavir]: in data set [1], the “90% effective concentration (EC90)” value was 0.2 µg/mL. Also, the AUC(0-t) in data set [2] turned out to be 17500 ng·h/mL.

A word on the Kp: it is the ratio of the level in a tissue or fluid to that in plasma or blood. In the case of `C[C@@H]1CCO[C@H]2Cn3cc(C(=O)NCc4ccc(F)cc4F)c(=O)c(O)c3C(=O)N12` [DTG, dolutegravir], the “AUC0-24 Plasma” value (human, in vivo) stood at 30967 ng·h/mL. In data set [3], the “AUC0-24 PBMC” value was found to be 12807 ng·h/mL. Further, the AUC(0-t) in data set [4] stood at 31600 ng·h/mL; in data set [2] it was 14900 ng·h/mL. The Kp in data set [2] (Ctrough in PBMC relative to plasma, throughout the protocol) was about 0.25; in data set [2] (PBMC/Plasma Ctrough ratio), 0.19.

Turning to `CO[C@H]1/C=C/O[C@@]2(C)Oc3c(C)c(O)c4c(O)c(c(/C=N/N5CCN(C)CC5)c(O)c4c3C2=O)NC(=O)/C(C)=C\C=C\[C@H](C)[C@H](O)[C@@H](C)[C@@H](O)[C@@H](C)[C@H](OC(C)=O)[C@@H]1C` [RIF, rifampicin], where the note is “median, DRV/RTV 1600/200 QD + DTG + RIF (n = 4)”, the “Cmax Plasma” value was found to be 11240 ng/mL.

Regarding `CC(C)c1nc(CN(C)C(=O)N[C@H](C(=O)N[C@@H](Cc2ccccc2)C[C@H](O)[C@H](Cc2ccccc2)NC(=O)OCc2cncs2)C(C)C)cs1` [RTV, ritonavir], the AUC(0-t) came to 6070 ng·h/mL in data set [4] and 9830 ng·h/mL in data set [2].

The values are drawn from PMC9211429 (Antimicrobial Agents and Chemotherapy, 2022).
